Among the data in ChEMBL document CHEMBL1909046, “DrugMatrix in vitro pharmacology data” are IC50 and Ki values, retold here.

In general, IC50 refers to the concentration that inhibits the measured activity by half. As a reminder, the Ki is the dissociation constant of the complex between target and ligand, obtained from inhibition or displacement.

Data set [1] in a line: DRUGMATRIX: Sigma2 radioligand binding (ligand: [3H] Ifenprodil). It is filed as cell membranes, Rattus norvegicus, Wistar, Brain, Membrane. As to conditions: Not Active = under 50% inhibition at 10 µM.
The target in data set [2] is T1, Substance-K receptor (Homo sapiens, UniProt P21452). Further: in other assays of this panel Not Active means under 50% inhibition at 10 µM.
T1 sequence (P21452 whole entry): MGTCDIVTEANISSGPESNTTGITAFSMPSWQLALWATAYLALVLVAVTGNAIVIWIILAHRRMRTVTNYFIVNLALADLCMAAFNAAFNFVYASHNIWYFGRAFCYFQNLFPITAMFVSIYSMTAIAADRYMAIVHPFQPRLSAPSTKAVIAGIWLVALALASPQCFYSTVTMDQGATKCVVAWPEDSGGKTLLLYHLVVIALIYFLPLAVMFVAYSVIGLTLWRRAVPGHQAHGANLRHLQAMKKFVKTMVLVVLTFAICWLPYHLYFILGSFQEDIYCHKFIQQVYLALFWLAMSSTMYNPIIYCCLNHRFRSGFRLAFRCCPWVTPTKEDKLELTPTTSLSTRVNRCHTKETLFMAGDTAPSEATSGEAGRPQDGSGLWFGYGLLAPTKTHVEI
The format is cell membranes, CHO, Membrane. As to conditions: cho.

Data set [3] has as its target T2, Neuropeptide Y receptor type 2 (Homo sapiens, UniProt P49146). Further: in other assays of this panel Not Active means under 50% inhibition at 10 µM.
T2 sequence (P49146 whole entry): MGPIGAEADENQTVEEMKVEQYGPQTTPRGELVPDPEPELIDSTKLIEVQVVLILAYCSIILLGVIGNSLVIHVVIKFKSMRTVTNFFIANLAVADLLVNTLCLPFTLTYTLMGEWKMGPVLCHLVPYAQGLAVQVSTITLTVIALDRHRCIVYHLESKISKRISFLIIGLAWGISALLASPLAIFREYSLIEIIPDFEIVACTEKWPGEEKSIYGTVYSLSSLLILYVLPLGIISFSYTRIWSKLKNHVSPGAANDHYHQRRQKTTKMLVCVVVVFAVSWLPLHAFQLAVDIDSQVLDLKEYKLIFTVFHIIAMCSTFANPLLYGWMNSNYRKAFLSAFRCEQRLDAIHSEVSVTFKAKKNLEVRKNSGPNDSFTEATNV
It is filed as cell membranes, Membrane. Particulars: kan-ts.

Data set [4] is described as follows: DRUGMATRIX: Nicotinic Acetylcholine radioligand binding (ligand: [125I] Epibatidine). It is filed as cell membranes, Membrane. Particulars: imr-32; Not Active = under 50% inhibition at 10 µM.
The target of data set [5] is Protein kinase C alpha type (Homo sapiens, UniProt P17252). The format is cell-based. As to conditions: sf9.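 Further: inhibition of PKCalpha kinase activity measured in an enzyme assay with histone as the phosphorylation substrate; in other assays of this panel Not Active means under 50% inhibition at 10 µM.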
The target in data set [6] is Epidermal growth factor receptor (Homo sapiens, UniProt P00533). As to the kind of experiment: DRUGMATRIX: Protein Tyrosine Kinase, EGF Receptor enzyme inhibition (substrate: Poly(Glu:Tyr)). It is filed as cell-based, Insect cells. As to conditions: insect cells; Not Active = under 50% inhibition at 10 µM.
Data set [7] addresses Cytochrome P450 2E1 (Homo sapiens, UniProt P05181). Particulars: bti-tn-5b1-4.

Sequence of Cytochrome P450 2E1 (P05181 whole entry): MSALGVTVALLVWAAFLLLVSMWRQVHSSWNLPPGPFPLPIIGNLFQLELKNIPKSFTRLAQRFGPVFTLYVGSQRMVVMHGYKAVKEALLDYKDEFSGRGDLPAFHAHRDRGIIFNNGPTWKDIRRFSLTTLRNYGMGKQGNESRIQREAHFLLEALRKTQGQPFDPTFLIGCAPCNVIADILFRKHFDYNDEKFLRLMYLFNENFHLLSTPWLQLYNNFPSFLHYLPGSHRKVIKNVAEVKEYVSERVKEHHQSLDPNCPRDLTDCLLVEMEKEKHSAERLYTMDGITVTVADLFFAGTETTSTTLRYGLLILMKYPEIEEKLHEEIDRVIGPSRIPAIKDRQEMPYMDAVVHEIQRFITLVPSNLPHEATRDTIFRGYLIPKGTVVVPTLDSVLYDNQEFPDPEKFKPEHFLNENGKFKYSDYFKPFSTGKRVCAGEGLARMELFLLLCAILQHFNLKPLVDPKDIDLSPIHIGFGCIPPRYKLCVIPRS
Sequence of Epidermal growth factor receptor (P00533 whole entry): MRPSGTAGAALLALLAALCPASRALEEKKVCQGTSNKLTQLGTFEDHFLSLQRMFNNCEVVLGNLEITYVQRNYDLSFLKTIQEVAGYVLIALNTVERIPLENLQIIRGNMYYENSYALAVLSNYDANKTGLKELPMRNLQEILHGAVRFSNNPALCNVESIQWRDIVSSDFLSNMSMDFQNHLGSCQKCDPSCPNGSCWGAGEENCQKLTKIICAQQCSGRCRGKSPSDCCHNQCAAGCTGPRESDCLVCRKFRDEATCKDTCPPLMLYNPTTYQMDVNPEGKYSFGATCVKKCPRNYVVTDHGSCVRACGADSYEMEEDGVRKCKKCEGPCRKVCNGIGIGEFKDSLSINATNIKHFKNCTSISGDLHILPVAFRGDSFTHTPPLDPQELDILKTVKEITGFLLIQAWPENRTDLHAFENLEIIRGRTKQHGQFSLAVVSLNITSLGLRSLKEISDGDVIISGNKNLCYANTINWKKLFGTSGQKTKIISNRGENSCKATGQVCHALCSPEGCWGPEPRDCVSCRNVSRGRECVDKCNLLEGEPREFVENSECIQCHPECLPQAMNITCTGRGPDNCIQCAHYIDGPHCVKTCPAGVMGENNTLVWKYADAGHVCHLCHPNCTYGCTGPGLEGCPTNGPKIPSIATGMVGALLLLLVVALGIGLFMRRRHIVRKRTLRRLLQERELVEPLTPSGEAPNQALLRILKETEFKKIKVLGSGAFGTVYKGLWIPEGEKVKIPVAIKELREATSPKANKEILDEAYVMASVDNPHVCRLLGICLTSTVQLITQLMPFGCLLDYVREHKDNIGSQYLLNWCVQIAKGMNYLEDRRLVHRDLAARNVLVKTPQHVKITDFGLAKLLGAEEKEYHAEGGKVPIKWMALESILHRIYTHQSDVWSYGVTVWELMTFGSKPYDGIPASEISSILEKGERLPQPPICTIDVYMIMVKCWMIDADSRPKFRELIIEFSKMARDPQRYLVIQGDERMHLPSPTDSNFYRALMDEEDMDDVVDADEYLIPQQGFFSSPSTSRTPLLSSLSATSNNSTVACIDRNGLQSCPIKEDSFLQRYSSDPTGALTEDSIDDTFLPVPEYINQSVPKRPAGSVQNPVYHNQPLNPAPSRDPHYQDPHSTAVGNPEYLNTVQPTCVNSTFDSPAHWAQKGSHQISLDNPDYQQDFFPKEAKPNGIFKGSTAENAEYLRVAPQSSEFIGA

With `COc1cc2c(c3oc(=O)c4c(c13)CCC4=O)[C@@H]1C=CO[C@@H]1O2` [AFLATOXIN], the IC50 entry in data set [1], in data set [2], in data set [3], in data set [4], in data set [5] and in data set [6] was “Not Active” each time. In data set [7], the IC50 entry is on record as “Not Active”. The Ki result in data set [1], in data set [2], in data set [3], in data set [4], in data set [5] and in data set [6] was “Not Active” throughout. Besides, in data set [7], the Ki result is recorded as “Not Active”.
As for `N=C(N)NC(=O)c1nc(Cl)c(N)nc1N` [AMILORIDE], the IC50 entry in data set [1], in data set [2], in data set [3], in data set [4], in data set [5] and in data set [6] was “Not Active” throughout. Further, the half-inhibitory concentration (IC50) result in data set [7] is reported as “Not Active”. Moreover, the Ki result in data set [1], in data set [4] and in data set [7] was “Not Active” each time.
As for `Cc1cc(=O)n(-c2ccccc2)n1C` [ANTIPYRINE], the IC50 entry in data set [1], in data set [2], in data set [3], in data set [4], in data set [5] and in data set [6] was “Not Active” in each case. In addition, in data set [7], the concentration for half-maximal inhibition (IC50) entry is “Not Active”. Also, the Ki entry in data set [1], in data set [4] and in data set [7] was “Not Active” each time.
Consider `CN1C(=O)COc2c(C(=O)NC3CN4CCC3CC4)cc(Cl)cc21` (centres undefined) [AZASETRON], for which the IC50 result in data set [1], in data set [2], in data set [3], in data set [4], in data set [5] and in data set [6] was “Not Active” throughout. Besides, the IC50 result in data set [7] is recorded as “Not Active”. Moreover, the Ki result in data set [1], in data set [4] and in data set [7] was “Not Active” throughout.
For `C[C@H]1C[C@H]2[C@@H]3CCC4=CC(=O)C=C[C@]4(C)[C@@]3(Cl)[C@@H](O)C[C@]2(C)[C@@]1(O)C(=O)CO` [BECLOMETHASONE], the IC50 entry in data set [1], in data set [2], in data set [3], in data set [4], in data set [5] and in data set [6] was “Not Active” in each case. The IC50 entry in data set [7] was “Not Active”. Moreover, the Ki entry in data set [1], in data set [4] and in data set [7] was “Not Active” throughout.
With `CCOC(=O)[C@H](CCc1ccccc1)N[C@H]1CCc2ccccc2N(CC(=O)O)C1=O` [BENAZEPRIL], the IC50 entry in data set [1], in data set [2], in data set [3], in data set [4], in data set [5] and in data set [6] was “Not Active” throughout. Further, the IC50 entry in data set [7] is “Not Active”. Further, the Ki result in data set [1], in data set [4] and in data set [7] was “Not Active” in each case.
In the case of `Nc1c(CC(=O)O)cccc1C(=O)c1ccc(Br)cc1` [BROMFENAC], the half-maximal inhibitory concentration (IC50) entry in data set [1], in data set [2], in data set [3], in data set [4], in data set [5] and in data set [6] was “Not Active” in each case. Moreover, the IC50 result in data set [7] is “Not Active”. Also, the Ki result in data set [1], in data set [4] and in data set [7] was “Not Active” each time.
Consider `CCCCN1CCCCC1C(=O)Nc1c(C)cccc1C.Cl` (centres undefined) [BUPIVACAINE HYDROCHLORIDE], for which the IC50 result in data set [1], in data set [2], in data set [3], in data set [4], in data set [5] and in data set [6] was “Not Active” throughout. In addition, the half-inhibitory concentration (IC50) entry in data set [7] was “Not Active”. In addition, the inhibitory constant (Ki) entry in data set [1], in data set [4] and in data set [7] was “Not Active” each time.
With `O=C1CC2(CCCC2)CC(=O)N1CCCCN1CCN(c2ncccn2)CC1` [BUSPIRONE], the IC50 in data set [1] (read-out: IC50) was 3380 nM; in data set [2] it was “Not Active”; in data set [3], “Not Active”; in data set [4], “Not Active”; in data set [5], “Not Active”; in data set [6], “Not Active”. Further, in data set [7], the half-inhibitory concentration (IC50) entry is “Not Active”. For the same compound, the figures for the Ki in data set [1] (read-out: Ki), in data set [4] and in data set [7] were 2080 nM, “Not Active” and “Not Active”, respectively.
On to `C[C@@]12C(=O)OC(=O)[C@]1(C)[C@H]1CC[C@@H]2O1` [CANTHARIDIN], for which the concentration for half-maximal inhibition (IC50) entry in data set [1], in data set [2], in data set [3], in data set [4], in data set [5] and in data set [6] was “Not Active” throughout. Also, the IC50 result in data set [7] is recorded as “Not Active”. For the same compound, the Ki entry in data set [1], in data set [4] and in data set [7] was “Not Active” each time.
For the compound `CC1=C(C(=O)O)N2C(=O)[C@@H](NC(=O)[C@H](N)c3ccccc3)[C@H]2SC1` [CEPHALEXIN ANHYDROUS], the IC50 entry in data set [1], in data set [2], in data set [3], in data set [4], in data set [5] and in data set [6] was “Not Active” throughout. Further, the IC50 result in data set [7] is listed as “Not Active”. For the same compound, the Ki result in data set [1], in data set [4] and in data set [7] was “Not Active” each time.
As for `ClC(Cl)Cl` [CHLOROFORM], the concentration for half-maximal inhibition (IC50) entry in data set [1], in data set [2], in data set [3], in data set [4], in data set [5] and in data set [6] was “Not Active” throughout. Further, in data set [7], the IC50 result is recorded as “Not Active”. In addition, the Ki entry in data set [1], in data set [4] and in data set [7] was “Not Active” throughout.
For the compound `C=C1CC[C@H](O)C/C1=C/C=C1\CCC[C@]2(C)[C@@H]([C@H](C)CCCC(C)C)CC[C@@H]12` [CHOLECALCIFEROL], the IC50 entry in data set [1], in data set [2], in data set [3], in data set [4], in data set [5] and in data set [6] was “Not Active” in each case. The IC50 entry in data set [7] is reported as “Not Active”. Besides, the Ki entry in data set [1], in data set [4] and in data set [7] was “Not Active” in each case.
Regarding `C[N+](C)(C)CCO.[Cl-]` [CHOLINE CHLORIDE], the IC50 entry in data set [1], in data set [2], in data set [3], in data set [4], in data set [5] and in data set [6] was “Not Active” each time. Besides, the IC50 entry in data set [7] is listed as “Not Active”. The Ki result in data set [1], in data set [4] and in data set [7] was “Not Active” in each case.
On to `CCOC(=O)C(C)(C)Oc1ccc(Cl)cc1` [CLOFIBRATE], for which the IC50 result in data set [1], in data set [2], in data set [3], in data set [4], in data set [5] and in data set [6] was “Not Active” throughout. Besides, the IC50 entry in data set [7] was “Not Active”. For the same compound, the Ki entry in data set [1], in data set [4] and in data set [7] was “Not Active” in each case.
